From patent publication US4009269A, “Antibiotic compositions and methods from micromonospora purpurea JI-20” (Schering Corporation, priority 1975, dated 1977)
≈ marks a conversion by molar mass, not a printed value. Structures can show the parent of a compound that is named as a salt.

What was measured:
[1] = test system: Staphylococcus aureus ATCC 6538P; assay: Disc-plate assay (bioassay potency); format: cell-based; settings: for potency (assay against standard Antibiotic JI-20B base): vs standard Antibiotic JI-20B base, assigned potency 1000 mcg/mg
Description: Peak antibiotic production is determined by a disc-plate assay which uses Staphylococcus aureus ATCC 6538P as the test organism and which is performed substantially as described by Oden, et al. Antimicrobial Agents and Chemotherapy, 1963, pages 8-13.
The reference standard is Antibiotic JI-20B base having an assigned potency of 1000 mcg/mg. One (1) microgram of the standard in one (1) ml. of 0.1M phosphate buffer at pH 8.0 elicits a zonal response of 16.8± 1.5 mm. The standard Antibiotic JI-20B sulfate assays 730 mcg/mg against the standard base. Antibiotic JI-20A base and the corresponding sulfate assay 723 mcg/mg. and 527 mcg/mg., respectively, when assayed against the standard Antibiotic JI-20B base.

Escherichia coli 11775 [2] = assay: In vivo mouse protection test; settings: ip, Escherichia coli 11775 i.p. infection, dosed twice (0 and 4 h), survivors at 48 hours, read-out: PD50
Description: (§1) To determine the in vivo protective activity of the antibiotics against lethal infections of pathogenic bacterial origin in mice, mice were dosed twice with the individual antibiotic, with a solution or a suspension in an aqueous vehicle containing 0.5 % carboxy-methyl-cellulose (CMC), once immediately before an intraperitoneal injection of the infecting bacteria and once 4 hours after such injection. The number of survivors was determined 48 hours after infection and that data analyzed by standard probit procedures to determine PD50 values with 95% confidence limits. The following chart sets forth the protective activity of the antibiotics against a pathogenic bacterium.

[3] = test system: Staphylococcus aureus Gray 979; assay: In vivo mouse protection test; settings: GRAY979, ip, Staphylococcus aureus Gray 979 i.p. infection, dosed twice (0 and 4 h), survivors at 48 hours, read-out: PD50
Description: as §1

Salmonella sp. S.C. = assay: In vivo mouse protection test; settings: 48 h, read-out: PD50
Description: as §1

[4] = test system: Pseudomonas aeruginosa 413; assay: In vivo mouse protection test; settings: ip, Pseudomonas aeruginosa 413 i.p. infection, dosed twice (0 and 4 h), survivors at 48 hours, read-out: PD50
Description: as §1

Staphylococcus aureus = assay: In vivo mouse protection test; settings: ip, Staphylococcus aureus i.p. infection, dosed twice (0 and 4 h), survivors at 48 hours, read-out: PD50
Description: as §1

Escherichia coli 626 = assay: In vivo mouse protection test; settings: ip, Escherichia coli 626 i.p. infection, dosed twice (0 and 4 h), survivors at 48 hours, read-out: PD50
Description: as §1

[5] = test system: Pseudomonas aeruginosa 1516-7; assay: In vivo mouse protection test; settings: 15167, ip, Pseudomonas aeruginosa 1516-7 i.p. infection, dosed twice (0 and 4 h), survivors at 48 hours, read-out: PD50
Description: as §1

[6] = test system: Streptococcus pyogenes C2V; assay: In vivo mouse protection test; settings: ip, Streptococcus pyogenes C2V i.p. infection, dosed twice (0 and 4 h), survivors at 48 hours, read-out: PD50
Description: as §1

pKa = format: physicochemical
Acute toxicity = settings: in vivo, iv, I.V.
Escherichia coli 11775 [7] = assay: In vitro MIC, Mueller-Hinton broth; format: cell-based; settings: 24 hours, expressed as free base, tested as sulfate
Description: (§2) In the table set forth below are test results after 24 hours incubation against representative gram positive and gram negative bacteria.

Klebsiella pneumoniae 18 = assay: In vitro MIC, Mueller-Hinton broth; format: cell-based; settings: 24 hours, expressed as free base, tested as sulfate
Description: as §2

Staphylococcus aureus 70 = assay: In vitro MIC, Mueller-Hinton broth; format: cell-based; settings: 24 hours, expressed as free base, tested as sulfate
Description: as §2

[8] = test system: Klebsiella rhinoscleromatis 18804; assay: In vitro MIC, Mueller-Hinton broth; format: cell-based; settings: Klebsiella pneumoniae, 24 hours, expressed as free base, tested as sulfate
Description: as §2

[9] = test system: Pseudomonas aeruginosa 59; assay: In vitro MIC, Mueller-Hinton broth; format: cell-based; settings: 24 hours, expressed as free base, tested as sulfate
Description: as §2

Proteus mirabilis 8019 = assay: In vitro MIC, Mueller-Hinton broth; format: cell-based; settings: 24 hours, expressed as free base, tested as sulfate
Description: as §2

Escherichia coli 12740 = assay: In vitro MIC, Mueller-Hinton broth; format: cell-based; settings: 24 hours, expressed as free base, tested as sulfate
Description: as §2

[10] = test system: Klebsiella pneumonia 13883; assay: In vitro MIC, Mueller-Hinton broth; format: cell-based; settings: Klebsiella pneumoniae, 24 hours, expressed as free base, tested as sulfate
Description: as §2

[11] = test system: Staphylococcus aureus 2059; assay: In vitro MIC, Mueller-Hinton broth; format: cell-based; settings: 24 hours, expressed as free base, tested as sulfate
Description: as §2

[12] = test system: Pseudomonas aeruginosa 60; assay: In vitro MIC, Mueller-Hinton broth; format: cell-based; settings: 24 hours, expressed as free base, tested as sulfate
Description: as §2

Staphylococcus aureus 45 = assay: In vitro MIC, Mueller-Hinton broth; format: cell-based; settings: 24 hours, expressed as free base, tested as sulfate
Description: as §2

Row | Compound | potency (assay against standard Antibiotic JI-20B base) [1] [µg/mg] | ED50 (Escherichia coli 11775 [2]) [mg/kg] | ED50 [3] [mg/kg] | ED50 (Salmonella sp. S.C.) [mg/kg] | ED50 [4] [mg/kg] | ED50 (Staphylococcus aureus) [mg/kg] | ED50 (Escherichia coli 626) [mg/kg] | ED50 [5] [mg/kg] | ED50 [6] [mg/kg] | pKa (pKa) | LD50 (Acute toxicity) [mg/kg] | MIC (Escherichia coli 11775 [7]) [µg/mL] | MIC (Klebsiella pneumoniae 18) [µg/mL] | MIC (Staphylococcus aureus 70) [µg/mL] | MIC [8] [µg/mL] | MIC [9] [µg/mL] | MIC (Proteus mirabilis 8019) [µg/mL] | MIC (Escherichia coli 12740) [µg/mL] | MIC [10] [µg/mL] | MIC [11] [µg/mL] | also measured
1 | CNC1C(O)C(OC2C(N)CC(N)C(OC3OC(CN)C(O)C(O)C3N)C2O)OCC1(C)O (stereo not shown) [Antibiotic JI-20A sulfate] | 527 |  |  |  |  |  |  |  |  |  |  |  |  |  |  |  |  |  |  |  | 
2 | CNC1C(O)C(OC2C(N)CC(N)C(OC3OC(CN)C(O)C(O)C3N)C2O)OCC1(C)O (stereo not shown) [Antibiotic JI-20A] |  | 4 | 3 | 3 | 50 | 2.9 | 15 | 50 | 40 | 8.1 | 115 | 0.3 (≈ 0.623 µM) | 7.5 (≈ 15.6 µM) | 3 (≈ 6.23 µM) | 0.05 (≈ 0.104 µM) | 3 (≈ 6.23 µM) | 0.8 (≈ 1.66 µM) | 0.3 (≈ 0.623 µM) | 7.05 (≈ 14.6 µM) | 7.5 (≈ 15.6 µM) | potency (assay against standard Antibiotic JI-20B base) ([1]; listed as Antibiotic JI-20A base): 723 µg/mg; MIC [12]: 3 µg/mL (≈ 6.23 µM); MIC (Staphylococcus aureus 45): 0.3 µg/mL (≈ 0.623 µM)
3 | CN[C@@H]1[C@@H](O)[C@@H](O[C@@H]2[C@@H](O)[C@H](O[C@H]3O[C@H](C(C)N)[C@@H](O)[C@H](O)[C@H]3N)[C@@H](N)C[C@H]2N)OC[C@]1(C)O (stereo partly shown) [Antibiotic JI-20B sulfate] | 730 |  |  |  |  |  |  |  |  |  |  |  |  |  |  |  |  |  |  |  | 
4 | CN[C@@H]1[C@@H](O)[C@@H](O[C@@H]2[C@@H](O)[C@H](O[C@H]3O[C@H](C(C)N)[C@@H](O)[C@H](O)[C@H]3N)[C@@H](N)C[C@H]2N)OC[C@]1(C)O (stereo partly shown) [Antibiotic JI-20B] |  | 8 | 2.8 | 4.5 | 50 | 14 | 15 | 50 | 40 | 8.1 | 115 | 0.8 (≈ 1.61 µM) | 17.5 (≈ 35.3 µM) | 3 (≈ 6.05 µM) | 0.08 (≈ 0.161 µM) | 7.5 (≈ 15.1 µM) | 0.8 (≈ 1.61 µM) | 0.3 (≈ 0.605 µM) | 0.08 (≈ 0.161 µM) | 7.5 (≈ 15.1 µM) | zone of inhibition at 1 µg/mL ([1]; Staphylococcus aureus, ATCC6538P, 1 microgram of standard in 1 ml 0.1M phosphate buffer pH 8.0, read-out: zonal response): 16.8 ± 1.5 mm; MIC [12]: 17.5 µg/mL (≈ 35.3 µM); MIC (Staphylococcus aureus 45): 0.3 µg/mL (≈ 0.605 µM)
